Targets include Histamine H3 receptor (Homo sapiens, UniProt Q9Y5N1); Melanocortin receptor 4 (Homo sapiens, UniProt P32245); Histamine H1 receptor (Homo sapiens, UniProt P35367).
For experiment [1], the target named is T1, Mu-type opioid receptor (Homo sapiens, UniProt P35372).
The target of another experiment is T2, Endothelin-1 receptor (Homo sapiens, UniProt P25101).
T2 sequence (P25101 whole entry): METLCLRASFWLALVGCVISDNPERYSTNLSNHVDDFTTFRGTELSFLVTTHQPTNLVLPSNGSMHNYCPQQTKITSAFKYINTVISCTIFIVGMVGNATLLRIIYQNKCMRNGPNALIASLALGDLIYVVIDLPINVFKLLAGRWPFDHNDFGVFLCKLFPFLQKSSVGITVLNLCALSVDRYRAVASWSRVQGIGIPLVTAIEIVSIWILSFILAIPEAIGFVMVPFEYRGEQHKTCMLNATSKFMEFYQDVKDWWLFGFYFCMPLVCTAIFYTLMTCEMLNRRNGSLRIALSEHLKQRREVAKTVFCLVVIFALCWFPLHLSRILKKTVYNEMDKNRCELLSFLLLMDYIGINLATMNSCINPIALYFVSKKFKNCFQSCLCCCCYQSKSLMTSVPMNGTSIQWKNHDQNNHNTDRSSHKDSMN

A further experiment deals with T3, Estrogen receptor (Homo sapiens, UniProt P03372).
T3 sequence (P03372 whole entry): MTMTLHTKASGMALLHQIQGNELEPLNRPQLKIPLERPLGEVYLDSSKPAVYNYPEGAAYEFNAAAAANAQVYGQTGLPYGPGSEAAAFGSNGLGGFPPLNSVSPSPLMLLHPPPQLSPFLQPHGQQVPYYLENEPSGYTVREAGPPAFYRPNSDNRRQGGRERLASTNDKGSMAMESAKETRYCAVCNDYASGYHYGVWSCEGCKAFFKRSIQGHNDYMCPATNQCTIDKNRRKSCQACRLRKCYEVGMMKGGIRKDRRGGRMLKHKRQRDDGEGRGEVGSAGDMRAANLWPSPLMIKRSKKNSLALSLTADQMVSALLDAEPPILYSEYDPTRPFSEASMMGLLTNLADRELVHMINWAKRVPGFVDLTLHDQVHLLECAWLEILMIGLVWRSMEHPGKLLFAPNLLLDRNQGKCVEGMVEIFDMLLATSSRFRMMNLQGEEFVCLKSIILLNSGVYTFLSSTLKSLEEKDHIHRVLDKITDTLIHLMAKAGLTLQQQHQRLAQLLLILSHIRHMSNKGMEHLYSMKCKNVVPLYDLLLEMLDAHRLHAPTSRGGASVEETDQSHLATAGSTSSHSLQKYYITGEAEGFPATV

Experiment [2] addresses Voltage-dependent L-type calcium channel subunit alpha-1C (Rattus norvegicus, UniProt P22002). The experiment is classed as functional.
The target in experiment [3] is T4, Cannabinoid receptor 1 (Homo sapiens, UniProt P21554).
T4 sequence (P21554 whole entry): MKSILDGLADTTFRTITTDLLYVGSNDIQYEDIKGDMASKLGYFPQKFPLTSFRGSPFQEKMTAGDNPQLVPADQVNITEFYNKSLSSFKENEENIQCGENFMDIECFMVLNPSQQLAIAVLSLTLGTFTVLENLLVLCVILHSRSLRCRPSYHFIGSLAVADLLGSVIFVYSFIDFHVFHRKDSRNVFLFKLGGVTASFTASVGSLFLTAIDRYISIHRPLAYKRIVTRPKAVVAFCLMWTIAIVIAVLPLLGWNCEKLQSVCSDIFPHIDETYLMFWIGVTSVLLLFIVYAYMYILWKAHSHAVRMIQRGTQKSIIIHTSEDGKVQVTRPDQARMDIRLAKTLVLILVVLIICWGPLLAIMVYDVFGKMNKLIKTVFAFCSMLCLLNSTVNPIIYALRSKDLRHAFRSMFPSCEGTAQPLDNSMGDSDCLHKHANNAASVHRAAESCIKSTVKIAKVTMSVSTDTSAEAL
In the next experiment the target is T5, Adenosine receptor A1 (Homo sapiens, UniProt P30542).
T5 sequence (P30542 whole entry): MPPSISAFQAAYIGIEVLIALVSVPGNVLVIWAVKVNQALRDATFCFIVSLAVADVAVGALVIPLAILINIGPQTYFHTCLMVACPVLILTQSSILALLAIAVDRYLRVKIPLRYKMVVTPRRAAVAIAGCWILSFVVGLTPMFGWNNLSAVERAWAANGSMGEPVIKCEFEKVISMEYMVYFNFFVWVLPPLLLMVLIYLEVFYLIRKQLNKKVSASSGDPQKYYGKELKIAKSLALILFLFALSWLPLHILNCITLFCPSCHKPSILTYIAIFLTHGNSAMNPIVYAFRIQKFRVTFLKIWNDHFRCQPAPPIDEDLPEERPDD

The target of experiment [4] is T6, Alpha-1A adrenergic receptor (Homo sapiens, UniProt P35348).
T6 sequence (P35348 whole entry): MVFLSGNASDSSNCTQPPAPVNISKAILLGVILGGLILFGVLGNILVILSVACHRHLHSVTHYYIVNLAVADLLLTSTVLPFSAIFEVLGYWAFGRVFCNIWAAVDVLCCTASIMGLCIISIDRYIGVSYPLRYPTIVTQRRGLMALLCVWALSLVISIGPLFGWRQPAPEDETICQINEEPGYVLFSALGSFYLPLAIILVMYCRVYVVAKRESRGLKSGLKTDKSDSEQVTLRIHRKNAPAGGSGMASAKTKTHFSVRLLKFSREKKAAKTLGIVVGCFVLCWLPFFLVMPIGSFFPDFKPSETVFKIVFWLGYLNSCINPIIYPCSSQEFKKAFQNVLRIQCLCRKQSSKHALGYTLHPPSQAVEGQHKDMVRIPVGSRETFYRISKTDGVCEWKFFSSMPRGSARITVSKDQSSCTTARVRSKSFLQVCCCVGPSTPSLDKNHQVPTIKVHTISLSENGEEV
The experiment is classed as functional, cell-based.

In experiment [5] the target is T4, Cannabinoid receptor 1. The experiment is classed as functional, cell-based.
The target of experiment [6] is Muscarinic acetylcholine receptor M3 (Homo sapiens, UniProt P20309).
Chain of Muscarinic acetylcholine receptor M3 (P20309 whole entry): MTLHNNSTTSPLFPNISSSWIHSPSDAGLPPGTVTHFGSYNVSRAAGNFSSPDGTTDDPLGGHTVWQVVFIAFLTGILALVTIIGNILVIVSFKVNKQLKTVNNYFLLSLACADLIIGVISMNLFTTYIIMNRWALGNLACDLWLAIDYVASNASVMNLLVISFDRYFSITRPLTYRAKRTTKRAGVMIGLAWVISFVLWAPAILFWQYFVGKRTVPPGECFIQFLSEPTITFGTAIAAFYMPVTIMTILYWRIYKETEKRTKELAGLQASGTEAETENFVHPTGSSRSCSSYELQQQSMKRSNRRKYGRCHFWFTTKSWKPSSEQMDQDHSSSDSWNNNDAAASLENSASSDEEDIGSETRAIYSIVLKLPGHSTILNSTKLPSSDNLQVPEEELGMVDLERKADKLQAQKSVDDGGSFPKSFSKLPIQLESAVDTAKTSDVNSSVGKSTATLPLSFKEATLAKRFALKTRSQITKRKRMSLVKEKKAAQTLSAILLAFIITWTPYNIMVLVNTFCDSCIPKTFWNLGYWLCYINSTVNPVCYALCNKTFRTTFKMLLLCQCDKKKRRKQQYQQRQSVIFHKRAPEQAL
Experiment [7] deals with T7, Muscarinic acetylcholine receptor M2 (Homo sapiens, UniProt P08172).
T7 sequence (P08172 whole entry): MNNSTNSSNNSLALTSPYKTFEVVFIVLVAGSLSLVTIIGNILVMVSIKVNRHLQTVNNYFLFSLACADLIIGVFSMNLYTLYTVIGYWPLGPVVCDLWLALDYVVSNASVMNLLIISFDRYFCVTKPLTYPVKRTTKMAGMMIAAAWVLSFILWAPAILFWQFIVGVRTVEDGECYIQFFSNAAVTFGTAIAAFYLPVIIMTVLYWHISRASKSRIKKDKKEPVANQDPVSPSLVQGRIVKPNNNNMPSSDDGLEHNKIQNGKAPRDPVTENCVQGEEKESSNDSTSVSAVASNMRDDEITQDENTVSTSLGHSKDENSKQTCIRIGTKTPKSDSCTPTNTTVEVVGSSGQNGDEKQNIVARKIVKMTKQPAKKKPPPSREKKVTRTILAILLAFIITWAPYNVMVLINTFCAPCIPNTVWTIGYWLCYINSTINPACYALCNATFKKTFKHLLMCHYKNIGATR
The experiment is classed as functional, cell-based.

Experiment [8] concerns the target T1, Mu-type opioid receptor. Briefly: biochemical. The experiment is classed as functional.
For experiment [9], the target named is T7, Muscarinic acetylcholine receptor M2. The experiment is classed as functional, cell-based. The source holds these as a separate data set.
Experiment [10] addresses 5-hydroxytryptamine receptor 2A (Homo sapiens, UniProt P28223). The experiment is classed as functional, cell-based.

Each structure is given as a SMILES string.

The results in this text go back to ChEMBL document CHEMBL5291721, “A preclinical secondary pharmacology resource illuminates target-adverse drug reaction associations of marketed drugs” (Nat Commun, 2023).
Note: assay procedure not described here.

T1 sequence (P35372 whole entry): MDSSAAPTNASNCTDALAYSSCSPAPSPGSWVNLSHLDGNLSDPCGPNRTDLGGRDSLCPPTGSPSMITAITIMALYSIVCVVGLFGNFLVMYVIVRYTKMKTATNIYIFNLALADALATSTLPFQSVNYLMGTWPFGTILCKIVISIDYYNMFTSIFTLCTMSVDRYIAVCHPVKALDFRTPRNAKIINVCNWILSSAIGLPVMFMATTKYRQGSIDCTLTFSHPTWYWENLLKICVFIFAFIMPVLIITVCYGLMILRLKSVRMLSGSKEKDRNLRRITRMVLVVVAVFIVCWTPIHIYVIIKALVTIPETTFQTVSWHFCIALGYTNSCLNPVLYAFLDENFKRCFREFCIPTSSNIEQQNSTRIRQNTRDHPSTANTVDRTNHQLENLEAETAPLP
Chain of Histamine H3 receptor (Q9Y5N1 whole entry): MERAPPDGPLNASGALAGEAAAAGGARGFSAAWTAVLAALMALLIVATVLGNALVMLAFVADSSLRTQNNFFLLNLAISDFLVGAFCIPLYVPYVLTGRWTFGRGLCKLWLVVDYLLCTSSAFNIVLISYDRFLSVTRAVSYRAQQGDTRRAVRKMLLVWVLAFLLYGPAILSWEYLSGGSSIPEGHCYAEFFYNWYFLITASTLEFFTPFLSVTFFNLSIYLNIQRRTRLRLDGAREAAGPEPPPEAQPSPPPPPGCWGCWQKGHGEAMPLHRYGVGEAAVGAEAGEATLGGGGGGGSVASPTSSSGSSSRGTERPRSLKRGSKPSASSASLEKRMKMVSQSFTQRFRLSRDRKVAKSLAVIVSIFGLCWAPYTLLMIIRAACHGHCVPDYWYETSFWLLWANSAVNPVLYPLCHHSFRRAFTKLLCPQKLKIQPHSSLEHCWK
Chain of Voltage-dependent L-type calcium channel subunit alpha-1C (P22002 whole entry): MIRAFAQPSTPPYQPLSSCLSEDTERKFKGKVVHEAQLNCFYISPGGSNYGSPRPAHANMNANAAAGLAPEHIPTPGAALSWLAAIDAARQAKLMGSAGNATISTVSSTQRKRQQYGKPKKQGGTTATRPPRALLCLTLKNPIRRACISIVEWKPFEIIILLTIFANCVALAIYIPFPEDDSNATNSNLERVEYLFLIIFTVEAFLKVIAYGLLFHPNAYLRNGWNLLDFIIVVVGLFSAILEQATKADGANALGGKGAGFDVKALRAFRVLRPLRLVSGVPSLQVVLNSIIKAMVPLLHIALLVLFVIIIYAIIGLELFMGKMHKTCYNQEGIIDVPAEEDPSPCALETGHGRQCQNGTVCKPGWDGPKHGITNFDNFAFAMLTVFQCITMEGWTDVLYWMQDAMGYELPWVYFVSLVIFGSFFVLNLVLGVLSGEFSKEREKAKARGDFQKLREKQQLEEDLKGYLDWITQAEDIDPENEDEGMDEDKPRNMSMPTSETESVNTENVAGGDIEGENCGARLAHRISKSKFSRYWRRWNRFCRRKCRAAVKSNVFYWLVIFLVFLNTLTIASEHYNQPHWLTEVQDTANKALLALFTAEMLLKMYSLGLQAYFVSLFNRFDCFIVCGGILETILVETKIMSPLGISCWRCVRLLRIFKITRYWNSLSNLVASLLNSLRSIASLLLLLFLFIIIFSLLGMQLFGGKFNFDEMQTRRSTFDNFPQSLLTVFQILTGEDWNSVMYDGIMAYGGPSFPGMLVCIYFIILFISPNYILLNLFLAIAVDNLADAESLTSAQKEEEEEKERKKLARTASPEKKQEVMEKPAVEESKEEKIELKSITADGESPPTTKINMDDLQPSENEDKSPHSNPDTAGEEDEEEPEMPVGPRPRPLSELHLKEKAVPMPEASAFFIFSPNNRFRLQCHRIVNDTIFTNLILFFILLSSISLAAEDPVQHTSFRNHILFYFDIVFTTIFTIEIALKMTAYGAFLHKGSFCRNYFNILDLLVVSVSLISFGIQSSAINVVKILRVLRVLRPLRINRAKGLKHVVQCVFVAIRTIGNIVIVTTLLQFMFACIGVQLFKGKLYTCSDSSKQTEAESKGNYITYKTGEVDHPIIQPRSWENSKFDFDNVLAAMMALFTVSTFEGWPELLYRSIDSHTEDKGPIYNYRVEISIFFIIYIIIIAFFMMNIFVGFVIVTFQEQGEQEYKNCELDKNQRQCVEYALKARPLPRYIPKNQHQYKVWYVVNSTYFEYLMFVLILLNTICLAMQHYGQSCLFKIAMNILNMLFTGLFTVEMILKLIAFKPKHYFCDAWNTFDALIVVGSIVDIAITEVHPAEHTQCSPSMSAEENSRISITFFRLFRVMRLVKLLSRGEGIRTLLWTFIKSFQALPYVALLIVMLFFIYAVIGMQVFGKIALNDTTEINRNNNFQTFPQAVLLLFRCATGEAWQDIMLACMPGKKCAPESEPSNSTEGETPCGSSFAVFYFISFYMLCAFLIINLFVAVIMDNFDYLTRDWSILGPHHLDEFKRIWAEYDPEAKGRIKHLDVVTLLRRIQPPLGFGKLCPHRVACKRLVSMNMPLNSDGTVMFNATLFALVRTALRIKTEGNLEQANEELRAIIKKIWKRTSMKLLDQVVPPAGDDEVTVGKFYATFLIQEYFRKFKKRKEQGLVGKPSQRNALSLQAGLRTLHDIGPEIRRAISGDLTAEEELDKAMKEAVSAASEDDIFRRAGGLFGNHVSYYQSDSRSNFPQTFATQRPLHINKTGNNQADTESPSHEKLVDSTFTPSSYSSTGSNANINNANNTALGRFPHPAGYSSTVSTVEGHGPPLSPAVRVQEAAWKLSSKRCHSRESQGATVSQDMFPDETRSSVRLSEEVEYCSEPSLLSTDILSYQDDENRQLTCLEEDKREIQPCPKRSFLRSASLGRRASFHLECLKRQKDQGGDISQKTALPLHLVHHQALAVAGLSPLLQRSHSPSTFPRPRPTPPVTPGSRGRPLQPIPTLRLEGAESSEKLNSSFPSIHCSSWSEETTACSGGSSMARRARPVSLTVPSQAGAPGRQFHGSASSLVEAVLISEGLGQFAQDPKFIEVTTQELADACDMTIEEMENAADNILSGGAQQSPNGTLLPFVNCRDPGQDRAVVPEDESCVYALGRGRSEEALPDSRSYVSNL
Chain of Melanocortin receptor 4 (P32245 whole entry): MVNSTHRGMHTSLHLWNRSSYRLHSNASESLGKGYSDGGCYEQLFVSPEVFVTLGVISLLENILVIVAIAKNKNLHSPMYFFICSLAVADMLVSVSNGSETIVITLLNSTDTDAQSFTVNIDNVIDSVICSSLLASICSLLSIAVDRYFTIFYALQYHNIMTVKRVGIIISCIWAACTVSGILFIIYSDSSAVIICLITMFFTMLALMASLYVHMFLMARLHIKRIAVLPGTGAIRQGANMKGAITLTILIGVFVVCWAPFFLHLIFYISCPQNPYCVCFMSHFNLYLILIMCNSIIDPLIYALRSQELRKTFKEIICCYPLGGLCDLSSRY
Chain of Histamine H1 receptor (P35367 whole entry): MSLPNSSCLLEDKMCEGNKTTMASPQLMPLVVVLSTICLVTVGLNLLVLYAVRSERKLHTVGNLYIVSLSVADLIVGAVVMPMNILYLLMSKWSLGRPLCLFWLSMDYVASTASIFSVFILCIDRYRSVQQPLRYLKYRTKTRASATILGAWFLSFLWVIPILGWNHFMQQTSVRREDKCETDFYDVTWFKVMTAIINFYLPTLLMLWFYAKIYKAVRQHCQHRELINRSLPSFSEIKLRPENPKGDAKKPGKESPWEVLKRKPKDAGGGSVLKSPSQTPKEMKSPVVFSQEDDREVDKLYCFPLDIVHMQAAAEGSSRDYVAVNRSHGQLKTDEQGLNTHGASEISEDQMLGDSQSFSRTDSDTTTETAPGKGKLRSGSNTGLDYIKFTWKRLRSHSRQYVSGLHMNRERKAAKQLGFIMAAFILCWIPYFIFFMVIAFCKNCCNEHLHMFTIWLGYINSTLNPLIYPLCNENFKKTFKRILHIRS

For orientation: AC50 means the concentration at which the activity in the assay is half-maximal. Turning to `C[C@]1(COc2ccc(N3CCC(Oc4ccc(OC(F)(F)F)cc4)CC3)cc2)Cn2cc([N+](=O)[O-])nc2O1`, the AC50 at Mu-type opioid receptor [1] is over 10 µM; on Endothelin-1 receptor, over 30 µM; on Histamine H3 receptor it was over 10 µM; on Estrogen receptor, over 30 µM; at Melanocortin receptor 4 it was over 30 µM; in experiment [2], over 10 µM. The AC50 at Cannabinoid receptor 1 [3] was over 10 µM; on Adenosine receptor A1 it was over 30 µM; at Histamine H1 receptor, over 10 µM.

As for `CC(=O)OCC[N+](C)(C)C` [ACETYLCHOLINE], the AC50 at Mu-type opioid receptor [1] was over 10 µM; at Endothelin-1 receptor, over 30 µM; at Histamine H3 receptor, over 10 µM; in experiment [4], over 30 µM; at Cannabinoid receptor 1 [5], over 30 µM; on Melanocortin receptor 4 it was over 30 µM. Besides, the AC50 is over 10 µM in experiment [2], over 10 µM at Cannabinoid receptor 1 [3], over 30 µM at Adenosine receptor A1 and over 10 µM on Histamine H1 receptor.

For `O=C(Nc1nc(-c2cc(Cl)cs2)c(N2CCN(C3CCCCC3)CC2)s1)c1cnc(N2CCC(C(=O)O)CC2)c(Cl)c1` [AVATROMBOPAG], the AC50 (on Mu-type opioid receptor [1]; on Endothelin-1 receptor; at Histamine H3 receptor; in experiment [6]; on Melanocortin receptor 4; in [2]) was over 10 µM throughout. For the same compound, the AC50 is over 10 µM at Cannabinoid receptor 1 [3], over 30 µM at Adenosine receptor A1 and over 10 µM on Histamine H1 receptor.

On Adenosine receptor A1, `Cc1nnc(SCC2=C(C(=O)O)N3C(=O)[C@@H](NC(=O)Cn4cc(Cl)c(=O)c(Cl)c4)[C@H]3SC2)s1` [CEFAZEDONE] had an AC50 of over 30 µM.

`CO[C@@]1(NC(=O)CSCC#N)C(=O)N2C(C(=O)O)=C(CSc3nnnn3C)CS[C@@H]21` [CEFMETAZOLE]: the AC50 (in experiment [7]; in [4]; on Cannabinoid receptor 1 [5]; at Mu-type opioid receptor [8]; in [9]; on Adenosine receptor A1) was over 30 µM in each case.

Turning to `CO/N=C(\C(=O)N[C@@H]1C(=O)N2C(C(=O)[O-])=C(C[n+]3cccc4c3CCC4)CS[C@H]12)c1csc(N)n1` [CEFPIROME], the concentration at half-maximal activity (AC50) (in experiment [10]; in experiment [7]; in [4]; at Cannabinoid receptor 1 [5]; in [6]; at Mu-type opioid receptor [8]) was over 30 µM each time. In addition, the concentration at half-maximal activity (AC50) (in [9]; on Adenosine receptor A1; at Histamine H1 receptor) was over 30 µM throughout.

On to `CC[C@H]1OC(=O)[C@H](C)[C@@H](O[C@H]2C[C@@](C)(OC)[C@@H](O)[C@H](C)O2)[C@H](C)[C@@H](O[C@@H]2O[C@H](C)C[C@H](N(C)C)[C@H]2O)[C@](C)(OC)C[C@@H](C)C(=O)[C@H](C)[C@@H](O)[C@]1(C)O` [CLARITHROMYCIN], for which the AC50 (at Endothelin-1 receptor; at Histamine H3 receptor; in [7]; in [4]; at Cannabinoid receptor 1 [5]; on Mu-type opioid receptor [8]) was over 30 µM in each case. Moreover, the concentration at half-maximal activity (AC50) (in experiment [9]; at Adenosine receptor A1) was over 30 µM in each case.

Regarding `Oc1c(I)cc(Cl)c2cccnc12` [CLIOQUINOL], the AC50 (in experiment [10]; in experiment [4]; on Cannabinoid receptor 1 [5]; in [6]; on Mu-type opioid receptor [8]; at Adenosine receptor A1) was over 30 µM in each case. Moreover, the AC50 at Histamine H1 receptor was over 30 µM.

At Adenosine receptor A1, `O=C(CCCN1CC=C(n2c(=O)[nH]c3ccccc32)CC1)c1ccc(F)cc1` [DROPERIDOL] registered an AC50 of over 30 µM.

`Nc1nc(N)nc(Nc2ccc([As]3SCC(CO)S3)cc2)n1` (configuration not stated) [MELARSOPROL] displayed an AC50 on Adenosine receptor A1 of over 30 µM.

For `CCC(=O)O[C@@H]1CC(=O)O[C@H](C)C/C=C/C=C/[C@H](OC(C)=O)[C@H](C)C[C@H](CC=O)[C@H](O[C@@H]2O[C@H](C)[C@@H](O[C@H]3C[C@@](C)(OC(C)=O)[C@@H](OC(=O)CC)[C@H](C)O3)[C@H](N(C)C)[C@H]2O)[C@H]1OC` [MIOCAMYCIN], the AC50 on Adenosine receptor A1 was over 30 µM.

As to `C1CNCCN1` [PIPERAZINE], the AC50 at Adenosine receptor A1 is over 30 µM.

For `COCCCOc1ccnc(C[S+]([O-])c2nc3ccccc3[nH]2)c1C` (configuration not stated) [RABEPRAZOLE], the AC50 on Mu-type opioid receptor [1] was over 30 µM; on Endothelin-1 receptor, over 30 µM; at Histamine H3 receptor, over 10 µM; in experiment [7], over 10 µM; at Melanocortin receptor 4, over 30 µM; in experiment [2], over 10 µM. Besides, the figures for the AC50 (in [9]; on Cannabinoid receptor 1 [3]; at Adenosine receptor A1) were over 10 µM, over 10 µM and over 30 µM, respectively.
